The numbers were not newly measured in patent US9358298B2, “17-hydroxyprogesterone ester containing oral compositions and related methods” (Lipocine Inc., priority 2011, dated 2016), which cites them from elsewhere.

For data set [1] the following is noted: given by mouth; Saxton et al. 2004, Greene NEJM.

`CCCCCC(=O)O[C@]1(C(C)=O)CC[C@H]2[C@@H]3CCC4=CC(=O)CC[C@]4(C)[C@H]3CC[C@@]21C` [17-hydroxyprogesterone caproate, 17-alpha-hydroxyprogesterone caproate]: the solubility in water is under 0.02 µg/mL. Further, the oral activity entry in data set [1] was “no oral activity”.
